Measurements from US5474929A, “Selectable/reporter gene for use during genetic engineering of plants and plant cells” (National Research Council of Canada, priority 1993, dated 1995).

How the values were obtained:
[1] = tested on: plant cells, such as soybean (SB-1), tobacco and Brassica sp.; test: Inhibition of plant cell growth by deoxyadenosine and analogs in culture medium; format: cell-based
[2] = tested on: soybean cells (Glycine max) line SB-1; test: Effect on growth of soybean cells in culture (dry weight increase); format: cell-based; conditions: for Increase In Dry Weight: average after 6 days in culture
Method: Aliquots of cells were subcultured to medium containing either 0, 0.74 μM, 7.4 μM, 74 μM of 2'-deoxyadenosine and cultured for 6 days. The cells were then harvested on filters, oven dried and weighed.

[3] = tested on: tobacco (Nicotiana tabacum cv. Xenthi) leaf explants; test: Effect on growth of tobacco leaf explants (fresh weight increase); format: cell-based; conditions: average after 3 weeks in culture
Method: The fresh weight increase was determined after 3 weeks in culture.

[4] = tested on: leaf discs from Normal (non-transformed) plants; test: Culture of leaf discs from non-transformed plants on selective media; format: cell-based, Nicotiana tabacum
Method: (§1) Leaf discs cut from Nicotiana tabacum cv. Xanthi were soaked in a dilution of an overnight culture of Agrobacterium/pDY18 for several seconds, blotted dry and placed on Murashige and Skoog medium containing Gamborg's (MS/B5 medium containing 30 g/l sucrose, 2 mg/l2,4-dichlorophenoxy acetic acid and […] phytoagar). After 2 days of co-cultivation the leaf discs were placed on medium containing ara-A (100 μM) or cordycepin (50 μM) as selective agents and 500 μg/ml carbenicillin to inhibit Agrobacterium growth. The shoots which were regenerated were transferred to rooting medium containing MS basal medium containing Gamborg's vitamins (MS/B5, Sigma), 30 g/l sucrose, 0.1 mg/l a-naphthalene acetic acid (NAA), 500 μg/ml carbenicillin and 100 μg/ml kanamycin and 6 g/l phytoagar, adjusted to pH 5.6. Regenerated plants were transferred to soil and grown at 25° C. in an 18/6 hrs day/night cycle. Two plants designated 18-2 and 18-3 were chosen for further study.
(§2) Leaf discs cut from plant 18-2, 18-3, and Normal (non-transformed) plants were cultured on agar MS agar media containing either no selective agent or ara-A (100 μM) or cordycepin (50 μM).

[5] = tested on: leaf discs from ADA transformed plants 18-2, 18-3; test: Culture of leaf discs from ADA transformed plants on selective media; format: cell-based, Nicotiana tabacum
Method: as §1, §2

Row | SMILES | growth of plant cells in presence of compound in culture medium [1] | Increase in Fresh Weight ([3]; 40 μM) | Increase in Fresh Weight ([3]; 80 μM) [g] | Increase in Fresh Weight ([3]; 160 μM) [g] | also measured
1 | Nc1ncnc2c1ncn2[C@H]1CC[C@@H](CO)O1 [2'-3'-dideoxyadenosine] | inhibited |  |  |  | 
2 | Nc1ncnc2c1ncn2[C@H]1C[C@H](O)[C@@H](CO)O1 [2'-deoxyadenosine] | inhibited | 0.74 ± 0.058 g | 0.96 ± 0.050 | 0.32 ± 0.038 | Increase In Dry Weight ([2]; 0.74 μM): 6.05 mg; Increase In Dry Weight ([2]; 7.40 μM): 3.51 mg; Increase In Dry Weight ([2]; 74.00 μM): 1.93 mg; effect on growth of soybean cells ([2]; all three concentrations (0.74, 7.4, 74 μM), 6 days): inhibitory; Increase in Fresh Weight ([3]; 320 μM): 0.07 ± 0.005 g; Increase in Fresh Weight ([3]; 640 μM): 0.04 ± 0.003 g
3 | Nc1nc(N)c2ncn([C@@H]3O[C@H](CO)[C@@H](O)[C@H]3O)c2n1 [2,6-diaminopurine riboside] | inhibited |  |  |  | 
4 | Nc1nc(Cl)nc2c1ncn2[C@@H]1O[C@H](CO)[C@@H](O)[C@H]1O [2-chloroadenosine] | inhibited |  |  |  | 
5 | OC[C@H]1O[C@@H](n2cnc3c(Cl)ncnc32)[C@H](O)[C@@H]1O [6-chloropurine riboside] | inhibited |  |  |  | 
6 | COc1ncnc2c1ncn2[C@@H]1O[C@H](CO)[C@@H](O)[C@H]1O [6-methoxypurine riboside] | inhibited |  |  |  | 
7 | Nc1ncnc2c1ncn2[C@@H]1O[C@H](CO)[C@@H](O)[C@H]1O [Adenosine] |  | 0.95 ± 0.069 g | 0.81 ± 0.060 | 0.94 ± 0.056 | Increase in Fresh Weight ([3]; 320 μM): 0.57 ± 0.052 g
8 | Nc1ncnc2c1ncn2[C@@H]1O[C@H](CO)[C@@H](O)[C@@H]1O [Arabinofuranosyl, 9-B-D-arabinofuranosyl adenine] | inhibited | 0.10 ± 0.048 g | 0.05 ± 0.008 | 0.02 ± 0.001 | growth of tissues on selective medium ([4]; ara-A 100 μM): No growth was observed; growth of tissues on selective medium ([5]; transformed plant 18-2, ara-A 100 μM): proliferated; growth of tissues on selective medium ([5]; transformed plant 18-3, ara-A (100 μM)): proliferated; Increase in Fresh Weight ([3]; 5 μM): 0.56 ± 0.047 g; Increase in Fresh Weight ([3]; 10 μM): 0.32 ± 0.037 g; Increase in Fresh Weight ([3]; 20 μM): 0.23 ± 0.025 g
9 | Nc1ncnc2c1ncn2[C@@H]1O[C@H](CO)C[C@H]1O [Cordycepin, 3'-deoxyadenosine] | inhibited | 0.04 + 0.049 g | 0.02 ± 0.001 | 0.02 ± 0.001 | growth of tissues on selective medium ([4]; cordycepin 50 μM): No growth was observed; growth of tissues on selective medium ([5]; transformed plant 18-2, cordycepin 50 μM): proliferated; growth of tissues on selective medium ([5]; transformed plant 18-3, cordycepin (50 μM)): proliferated; Increase in Fresh Weight ([3]; 5 μM): 0.61 ± 0.059 g; Increase in Fresh Weight ([3]; 10 μM): 0.10 ± 0.016 g; Increase in Fresh Weight ([3]; 20 μM): 0.06 ± 0.008 g
10 | Nc1ncnc2c1ncn2[C@@H]1O[C@H](CO)[C@H](O)[C@H]1O [xyl-A, 9-B-D-xylofuranosyl adenine] | inhibited |  |  |  | 
